Experiments:
[1] = polar organic solvents and water; cited from earlier work
[2] = Dose ranging study: toxicity and side effects of different TPA doses administered clinically by i.v. infusion; format: in vivo, human
Method: TPA solution in a sterile syringe was injected into 200 ml of sterile saline and mixed well for i.v. infusion.
One mg TPA in solution was mixed well with 200 ml of sterile saline for intravenous infusion which was completed in 1 h at the rate of 16 μg/min. […] The above symptoms could be alleviated by giving the patients glucocorticoids. […] However, these side effects were short lived and reversible.
0.5 mg of TPA in solution was mixed well with 200 ml of saline for intravenous infusion which was completed in 1 h at the rate of 8 μg/min. […] Difficulty in breathing was not observed. The cardiac, hepatic, renal and pulmonary functions were all normal.
0.25 mg of TPA in solution was mixed well with 200 ml of saline for intravenous infusion which was completed in 1 h at the rate of 4 μg/min. […] The cardiac, hepatic, renal and pulmonary functions were all normal.

[3] = patients with bone marrow function depressed by chemotherapy; Han et al. 1998; cited from earlier work
HIV = conditions: MT-4 cells; Mekkawy et al. 2000; cited from earlier work
[4] = 0.25 mg/patient x 4/week, i.v. infusion
[5] = 0.5 mg/patient x 2/week, i.v. infusion
[6] = 1 mg/patient/week, i.v. infusion
[7] = 1 mg/patient/week, i.v. infusion in 1 h at 16 μg/min

## CC1=C[C@H]2[C@@]3(O)[C@H](C)[C@@H](O)[C@]4(O)[C@H]([C@@H]3C=C(CO)C[C@]2(O)C1=O)C4(C)C [Phorbol]
[1]
  solubility: well soluble in most polar organic solvents and in water

## CCCCCCCCCCCCCC(=O)O[C@@H]1[C@@H](C)[C@@]2(O)[C@@H](C=C(CO)C[C@]3(O)C(=O)C(C)=C[C@@H]23)[C@@H]2C(C)(C)[C@]12OC(C)=O (stereo in doubt) [TPA, 12-O-tetradecanoylphorbol-13-acetate]
[2]; [4]
  Hb in the urine: No Hb was detected in the urine
  cardiac, hepatic, renal and pulmonary functions: all normal
  difficulty in breathing: no patient suffered difficulty in breathing
[2]; 0.25 mg/patient x 4/week, i.v. infusion in 1 h at 4 μg/min
  symptoms such as chills and fever: also observed, but to a much lesser extent than with the higher dosages
[2]; [5]
  Hb in the urine: Occasionally, Hb was detected in patients' urine
  cardiac, hepatic, renal and pulmonary functions: all normal
  difficulty in breathing: not observed
  tolerability: tolerated the lower dose more easily
[2]; [6]
  Hb in the urine: Hb was detected in the urine
  bleeding: caused a minority of patients to bleed
  cardiac, hepatic, renal and pulmonary functions: all found to be normal
  difficulty in breathing: several patients suffered for a short period of time difficulty in breathing
[2]; [7]
  duration of chills: about 30 min
  duration of fever: 3 to 5 h
  fever: patients' temperature reached: 37.5-39.5 °C
  onset of chills after TPA administration: One hour after TPA administration
[2]; TPA application (reason for giving it by i.v. infusion)
  local irritation: strong local irritation
[3]
  circulating white blood cells and neutrophils: cause an increase in circulating white blood cells and neutrophils
HIV
  HIV-cytopathic effects: inhibit the HIV-cytopathic effects on MT-4 cells
